Results from patent US20220259249A1, “INHIBITORS OF ANTIBIOTIC RESISTANCE MEDIATED BY ARNT” (priority 2019, published 2022).
Like-named read-outs stand apart in the source and are kept apart here.

How the values were obtained:
[1] = tested on: P. aeruginosa PA14 col^R 5 (colistin-resistant strain); assay: microbe, parasite or virus in culture; type: cell-based; settings: for IC90: read-out: IC90, synergy with colistin (8 μg/ml), minimum concentration causing at least 90% growth inhibition; for antibacterial activity per se: in the absence of colistin; for inhibition of bacterial growth in the presence of colistin: colistin 8 μg/ml
Procedure: The compounds identified by in silico screening were tested for their antibacterial activity (in the absence of colistin) and for their synergistic or adjuvant activity with colistin against a colistin-resistant strain of P. aeruginosa grown in the absence or presence of a sub-inhibitory concentration of colistin (8 μg/ml).
This strain over-expresses the am genes responsible for the modification of lipopolysaccharide by the addition of L-amino-arabinose.
The strain was grown in Mueller-Hinton (MH) medium for 8 hours, and inoculated at a cell density of ˜10^6/ml in MH medium supplemented or not with colistin at a concentration of 16 μg/ml. […] The microtitration plates were incubated at 37° C. without stirring for 24 hours. Bacterial growth was assessed by measuring absorbance at 600 nm (A600) in a microplate reader (Victor 2^V, Perkin-Elmer). […] For each compound three independent experiments were conducted, and the averages of the values obtained in the three experiments are considered to determine the values of IC50 e IC90.

[2] = tested on: 16HBE cells (human epithelial cells of bronchial origin); assay: Cell viability test (MTT reduction);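 further: formazan absorbance at 570 nm after MTT reduction, corrected for cell-free blank wells, reported relative to untreated cells, from duplicate wells over three independent repeats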
Procedure: The cytotoxic potential of the compounds was evaluated on cell cultures in vitro. […] The results are reported in the table as viability (%) compared to untreated cells (Table 4).
To evaluate the cytotoxic potential of the compounds under examination, the MTT (3-(4,5-dimethylthiazol-2-yl)-2,5-diphenyltetrazolium) reduction test, commonly used to monitor cell viability was used following the exposure to potentially cytotoxic agents. The essay is based on the reduction of MTT to formazan, a compound that assumes a blue colour which can be evaluated by spectrophotometric reading at a wavelength of 570 nm. For the essay we used the 16HBE cell line. […] Each test was performed in duplicate and three independent replicas were made.
Cell viability was calculated as follows:
COD570=OD570 of sample−OD570 of wells without cells (white)
Viability=100−reduction (%)
where: NT indicates the samples of cells non-threated with the compounds; T the samples of cells treated with the compounds at the different concentrations.
The mean cell viability values were calculated using the Excel mean and standard deviation functions.

[3] = Pseudomonas aeruginosa, PA14, 24 h, read-out: IC50 without colistin
[4] = read-out: IC50, synergy with colistin (8 μg/ml), PA14 ColR5, colistin 8 μg/ml (sub-inhibitory), minimum concentration causing at least 50% growth inhibition, 24 h
[5] = PA14 ColR5, colistin 8 μg/ml (sub-inhibitory), 24 h
[6] = 16HBE, 1.95 μM, 18 hours, MTT, vs untreated cells
[7] = 16HBE, 3.91 μM, 18 hours, MTT, vs untreated cells
[8] = 16HBE, 7.81 μM, 18 hours, MTT, vs untreated cells
[9] = 16HBE, 15.63 μM, 18 hours, MTT, vs untreated cells
[10] = 16HBE, 125 μM, 18 hours, MTT, vs untreated cells
[11] = 16HBE, 250 μM, 18 hours, MTT, vs untreated cells
[12] = 16HBE, 62.5 μM, 18 hours, MTT, vs untreated cells

Row | Compound | IC50 [1, 3] [µM] | IC50 [1, 4] [µM] | IC90 [1, 5] [µM] | also measured
1 | COC(=O)[C@]1(C)CCC[C@@]2(C)C3CC[C@@]4(C)C[C@]3(CCC21)CC4=O (single isomer, unassigned; ent-16) [SR7, methyl ester of ent-16-oxo-beyeran-19-oic acid] | > 250 | > 250 | > 250 | –
2 | O=C1c2c(O)cccc2[C@H]([C@@H]2O[C@H](CO)[C@@H](O)[C@H](O)[C@H]2O)c2cc(CO)cc(O)c21 [BBN36, (10S)-1,8-dihydroxy-3-(hydroxymethyl)-10-[(2S, 3R, 4R, 5S, 6R)-3,4,5-trihydroxy-6-(hydroxymethyl)oxan-2-yl]-10 H-anthracen-9-one] | > 250 | > 250 | > 250 | –
3 | O=C(/C=C/c1ccc(O)c(O)c1)O[C@@H]1C[C@](O)(C(=O)O)C[C@@H](O)[C@H]1O [BBN53, (1S, 3R, 4R, 5R)-3-[(E)-3-(3,4-dihydroxyphenyl)prop-2-enoyl]oxy-1,4,5-trihydroxycyclohexane-1-carboxylic acid] | > 250 | > 250 | > 250 | –
4 | O=C(CCc1ccc(O)cc1)c1c(O)cc(O)cc1O [BBN101, 3-(4-hydroxyphenyl)-1-(2,4,6-trihydroxyphenyl)propan-1-one] | > 250 | > 250 | > 250 | –
5 | COc1cc(O)c(O)c(CC=C(C)C)c1-c1coc2cc(O)cc(O)c2c1=O [BBN118, 3-[3,4-dihydroxy-6-methoxy-2-(3-methylbut-2-enyl)phenyl]-5,7-dihydroxycromen-4-one] | > 250 | – | > 250 | –
6 | CC1(C)C=Cc2c(cc(O)c3c(=O)c4cc5c(c(O)c4oc23)OC(C)(C)C=C5)O1 [BBN119, 11,22-dihydroxy-7,7,19,19-tetramethyl-2,8,20-trioxapentacyclo [12.8.0.03,120,04,90,016,21]docosa-1(14), 3(12), 4(9), 5, 10, 15, 17, 21-octaen-13-one] | > 250 | > 250 | > 250 | –
7 | C=CC(C)(C)c1c2c(c3oc4c(O)c(O)ccc4c(=O)c3c1O)C(C)(C)C(C)O2 (stereo not drawn) [BBN120, rheediaxanthone B] | > 250 | – | > 250 | –
8 | Cc1nccc2c1[nH]c1ccccc12 [BBN135, 1-methyl-9H-pyrido[3,4-b]indole] | > 250 | > 250 | > 250 | –
9 | COC(=O)C1=CO[C@@H](O[C@@H]2O[C@H](CO)[C@@H](O)[C@H](O)[C@H]2O)[C@@H]2[C@@H](C)[C@@H](O)C[C@H]12 [BBN139, methyl (1S, 4aS, 6S, 7R, 7aS)-6-hydroxy-7-methyl-1-[(2 S, 3 R, 4 S, 5S, 6R)-3,4,5-trihydroxy-6-(hydroxymethyl)oxan-2-yl]oxy-1,4a, 5,6,7,7a-haxidrocrociclopenta [c] piran-4-carboxylate] | > 250 | > 250 | > 250 | –
10 | COc1cc2ccc(=O)oc2cc1OC/C=C(\C)CCC=C(C)C [BBN146, 6-methoxy-7-O-geranyl-coumarin] | > 250 | > 250 | > 250 | –
11 | CC(C)=CCc1c(O)cc2c(c1O)C(=O)[C@H](O)[C@@H](c1ccc(O)cc1)O2 [BBN147, 6-prenyl-aromadendrine] | > 250 | – | > 250 | –
12 | CC(C)=CCc1c(O)c(C(=O)c2ccccc2)c(O)c2c1OC(C)(C)C=C2 [BBN148, [5,7-dihydroxy-2,2-dimethyl-8-(3-methylbut-2-enyl)cromen-6-yl]-phenylmethanone] | > 250 | > 250 | > 250 | –
13 | O=C(O)c1cc(O)c2c(c1)C(=O)c1cccc(O)c1C2=O [BBN152, 4,5-dihydroxy-9,10-dioxoanthracene-2-carboxylic acid] | > 250 | > 250 | > 250 | –
14 | CC(C)=CCC/C(C)=C/COc1ccc(C(=O)/C=C/c2ccccc2)cc1 [BBN154, 4′-O-geranil-calcone] | > 250 | > 250 | > 250 | –
15 | C[C@]12C=C[C@@]3(CCC4[C@@](C)(CO)CCC[C@@]4(C)C3CC1)C2 (stereo partly drawn) [FDA, ent-beyer-15-en-18-ol] | > 250 | > 250 | > 250 | antibacterial activity per se [1]: none of the compounds showed antibacterial activity per se
16 | C[C@]12C=C[C@@]3(CCC4[C@@](C)(COC(=O)CC(=O)O)CCC[C@@]4(C)C3CC1)C2 (stereo partly drawn) [FDM, ent-beyer-15-en-18-O-malonic acid] | > 250 | 62.5 | > 250 | Average percentage of cell viability (±standard deviation) [2]: 106.63 ± 2.87%; Average percentage of cell viability (±standard deviation) [2, 6]: 102.92 ± 7.31%; Average percentage of cell viability (±standard deviation) [2, 7]: 96.70 ± 1.60%; Average percentage of cell viability (±standard deviation) [2, 8]: 97.93 ± 2.17%; Average percentage of cell viability (±standard deviation) [2, 9]: 107.42 ± 0.01%; Average percentage of cell viability (±standard deviation) ([2]; 16HBE, 31.25 μM, 18 hours, MTT, vs untreated cells): 113.17 ± 8.95%; Average percentage of cell viability (±standard deviation) [2, 10]: 100.48 ± 12.78%; Average percentage of cell viability (±standard deviation) [2, 11]: 85.01 ± 2.40%; inhibition of bacterial growth in the presence of colistin [1]: able to inhibit bacterial growth in the presence of colistin; antibacterial activity per se [1]: none of the compounds showed antibacterial activity per se
17 | C[C@]12C=C[C@@]3(CCC4[C@@](C)(COC(=O)CCC(=O)O)CCC[C@@]4(C)C3CC1)C2 (stereo partly drawn) [FDS, ent-beyer-15-en-18-O-succinic acid] | > 250 | 31.2 | > 250 | Average percentage of cell viability (±standard deviation) [2]: 102.95 ± 6.74%; Average percentage of cell viability (±standard deviation) [2, 6]: 98.93 ± 5.38%; Average percentage of cell viability (±standard deviation) [2, 7]: 95.34 ± 8.28%; Average percentage of cell viability (±standard deviation) [2, 8]: 93.53 ± 2.01%; Average percentage of cell viability (±standard deviation) [2, 9]: 99.77 ± 6.58%; Average percentage of cell viability (±standard deviation) [2, 12]: 102.15 ± 3.15%; Average percentage of cell viability (±standard deviation) [2, 10]: 105.88 ± 1.31%; Average percentage of cell viability (±standard deviation) [2, 11]: 86.12 ± 3.18%; inhibition of bacterial growth in the presence of colistin [1]: able to inhibit bacterial growth in the presence of colistin; antibacterial activity per se [1]: none of the compounds showed antibacterial activity per se
18 | C=C1C[C@@]23CCC4[C@@](C)(CCC[C@@]4(C)C(=O)O)C2CC[C@]1(O)C3 (stereo partly drawn) [SR5, 13-hydroxy-kaur-16-en-19-oic acid] | > 250 | > 250 | > 250 | –
19 | C[C@@]12CCC3[C@@](CCC4[C@](C)(COC(=O)C(=O)O)CCC[C@]43C)(CC1)C2 (stereo partly drawn) [SR8, ent-beyeran-19-O-oxalic acid] | > 250 | – | > 250 | Average percentage of cell viability (±standard deviation) [2]: 90.55 ± 4.17%; Average percentage of cell viability (±standard deviation) [2, 6]: 100.17 ± 14.21%; Average percentage of cell viability (±standard deviation) [2, 7]: 97.84 ± 10.19%; Average percentage of cell viability (±standard deviation) [2, 8]: 90.33 ± 4.26%; Average percentage of cell viability (±standard deviation) [2, 9]: 92.64 ± 6.57%; Average percentage of cell viability (±standard deviation) [2, 12]: 85.68 ± 6.99%; Average percentage of cell viability (±standard deviation) [2, 10]: 78.02 ± 7.46%; Average percentage of cell viability (±standard deviation) [2, 11]: 80.16 ± 2.01%
20 | C[C@@]12CCC3[C@@](CCC4[C@](C)(CO)CCC[C@]43C)(CC1)C2 (stereo partly drawn) [SR9, ent-beyeran-19-ol] | > 250 | > 250 | > 250 | –
21 | C[C@@]12CCC3[C@@](CCC4[C@@]3(C)CCC[C@@]4(C)C(=O)O)(CC1)C2 (stereo partly drawn) [SR10, ent-beyeran-19-oic acid] | > 250 | – | > 250 | Average percentage of cell viability (±standard deviation) [2]: 99.52 ± 9.52%; Average percentage of cell viability (±standard deviation) [2, 6]: 105.21 ± 6.73%; Average percentage of cell viability (±standard deviation) [2, 7]: 104.95 ± 6.36%; Average percentage of cell viability (±standard deviation) [2, 8]: 101.00 ± 7.12%; Average percentage of cell viability (±standard deviation) [2, 9]: 97.98 ± 1.66%; Average percentage of cell viability (±standard deviation) [2, 12]: 99.80 ± 4.30%; Average percentage of cell viability (±standard deviation) [2, 10]: 92.07 ± 5.47%; Average percentage of cell viability (±standard deviation) [2, 11]: 1.47 ± 2.29%; reduction in cell viability ([2]; 16HBE, highest concentration (250 μM), 18 hours): total reduction of cell viability
